Where a SMILES comes first, the peptide text is derived from it. [ ]: non-standard residue; d: D form. The star is where a group is joined. NHCH2CH2OH = OCCN*; For = O=C*
Legend:
[1] = H+/Na+ transport assay of bead-derived peptides (one-point); format: biochemical; set-up: key: relative activity; mean of two control wells = 1.00; conditions: bead-derived peptide solution, EYPC/EYPG LUVs;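 further: relative to parent gramicidin A activity set to 1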
In short: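 Miniaturized 96-well format. LUVs with entrapped pyranine (1.0 mM) were exposed to peptide for 30 min at RT. Intensities were expressed relative to full lysis by Triton X-100 and no treatment, with control-well mean = 1.00.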

[2] = tested on: P388 mouse leukemia cells; conditions: 92 h
In short: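 P388 cells at 1 × 10^4 cells/mL (final) were exposed to library peptides (stocks diluted 250-fold in RPMI1640/10% FBS) for 92 h at 37 °C, 5% CO2. Viable cells were counted by WST-1/1-methoxy PMS (4 h), absorbance 415 nm, and expressed as cell viability (%).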

[3] = tested on: Streptococcus pyogenes SSI-9; assay: Antibacterial activity assay of bead-derived peptides (three concentrations); format: cell-based; set-up: key: +++: inhibition by the 640-fold diluted peptide solution; ++: inhibition by the 160-fold diluted solution; +: inhibition by the 40-fold diluted solution; -: no inhibition; conditions: S. pyogenes, bead-derived peptide solution, three concentrations
In short: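 Undiluted, 4-fold and 16-fold DMSO-diluted peptide stocks; S. pyogenes SSI-9, 2 × 10^5 CFU, cation-adjusted MHB (50 mg/L Ca2+, 25 mg/L Mg2+) + 5% laked horse blood; 37 °C, 18 h; readout = cell pellet visible or not.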

SMILES | H+/Na+ transport activity normalized against the value of 1 (1.00) [1] | cell viability/% [2] [%] | antibacterial activity [3]
CNC(=O)C[C@@H](NC(=O)[C@@H](NC(=O)[C@@H](CC(C)C)NC(=O)[C@H](C)NC(=O)[C@@H](CC(C)C)NC(=O)[C@H](C)NC(=O)CNC(=O)[C@@H](NC=O)C(C)C)C(C)C)C(=O)N[C@@H](Cc1c[nH]c2ccccc12)C(=O)N[C@H](CC(C)C)C(=O)N[C@@H](Cc1c[nH]c2ccccc12)C(=O)N[C@H](CC(C)C)C(=O)N[C@@H](Cc1c[nH]c2ccccc12)C(=O)N[C@H](CC(C)C)C(=O)N[C@@H](Cc1c[nH]c2ccccc12)C(=O)NCCO [compound 8061] (For-VGA[dL]A[dL]V[dD](NHMe)W[dL]W[dL]W[dL]W-NHCH2CH2OH) | 1.05 | 100.0 | -
CNC(=O)C[C@@H](NC(=O)[C@H](C)NC(=O)[C@@H](CC(C)C)NC(=O)[C@H](C)NC(=O)CNC(=O)[C@@H](NC=O)C(C)C)C(=O)N[C@H](C(=O)N[C@@H](C(=O)N[C@@H](Cc1c[nH]c2ccccc12)C(=O)N[C@H](CC(C)C)C(=O)N[C@@H](Cc1c[nH]c2ccccc12)C(=O)N[C@@H](C(=O)N[C@@H](Cc1c[nH]c2ccccc12)C(=O)N[C@H](CC(C)C)C(=O)N[C@@H](Cc1c[nH]c2ccccc12)C(=O)NCCO)C(C)C)C(C)C)C(C)C [compound 8265] (For-VGA[dL]A[dD](NHMe)V[dV]W[dL]W[dV]W[dL]W-NHCH2CH2OH) | 1.12 | 68.3 | -
CC(C)C[C@@H](NC(=O)[C@H](C)NC(=O)CNC(=O)[C@@H](NC=O)C(C)C)C(=O)N[C@@H](C)C(=O)N[C@H](CC(C)C)C(=O)N[C@H](C(=O)N[C@@H](C(=O)N[C@@H](Cc1c[nH]c2ccccc12)C(=O)N[C@@H](C(=O)N[C@@H](Cc1c[nH]c2ccccc12)C(=O)N[C@H](CC(C)C)C(=O)N[C@@H](Cc1c[nH]c2ccccc12)C(=O)N[C@H](CC(C)C)C(=O)N[C@@H](Cc1c[nH]c2ccccc12)C(=O)NCCO)[C@H](C)O)C(C)C)C(C)C [compound 8342] (For-VGA[dL]A[dL]V[dV]W[dT]W[dL]W[dL]W-NHCH2CH2OH) | 1.00 | 54.5 | -
CC(C)C[C@@H](NC(=O)[C@H](C)NC(=O)[C@H](NC(=O)[C@H](C)NC(=O)CNC(=O)[C@@H](NC=O)C(C)C)C(C)C)C(=O)N[C@H](C(=O)N[C@@H](C(=O)N[C@@H](Cc1c[nH]c2ccccc12)C(=O)N[C@@H](C(=O)N[C@@H](Cc1c[nH]c2ccccc12)C(=O)N[C@H](CC(C)C)C(=O)N[C@@H](Cc1c[nH]c2ccccc12)C(=O)N[C@H](CC(C)C)C(=O)N[C@@H](Cc1c[nH]c2ccccc12)C(=O)NCCO)[C@H](C)O)[C@H](C)O)C(C)C [compound 8374] (For-VGA[dV]A[dL]V[dT]W[dT]W[dL]W[dL]W-NHCH2CH2OH) | 1.02 | 66.4 | -
CNC(=O)C[C@@H](NC(=O)[C@H](Cc1c[nH]c2ccccc12)NC(=O)[C@@H](CC(C)C)NC(=O)[C@H](Cc1c[nH]c2ccccc12)NC(=O)[C@H](NC(=O)[C@H](Cc1c[nH]c2ccccc12)NC(=O)[C@@H](CC(C)C)NC(=O)[C@@H](NC(=O)[C@H](NC(=O)[C@H](C)NC(=O)[C@H](NC(=O)[C@H](C)NC(=O)CNC(=O)[C@@H](NC=O)C(C)C)C(C)C)C(C)C)C(C)C)C(C)C)C(=O)N[C@@H](Cc1c[nH]c2ccccc12)C(=O)NCCO [compound 8400] (For-VGA[dV]A[dV]V[dL]W[dV]W[dL]W[dD](NHMe)W-NHCH2CH2OH) | 1.01 | 34.4 | -
CNC(=O)C[C@@H](NC(=O)[C@@H](NC(=O)[C@@H](CC(C)C)NC(=O)[C@H](C)NC(=O)[C@H](NC(=O)[C@H](C)NC(=O)CNC(=O)[C@@H](NC=O)C(C)C)C(C)C)C(C)C)C(=O)N[C@@H](Cc1c[nH]c2ccccc12)C(=O)N[C@@H](C(=O)N[C@@H](Cc1c[nH]c2ccccc12)C(=O)N[C@@H](C(=O)N[C@@H](Cc1c[nH]c2ccccc12)C(=O)N[C@@H](C(=O)N[C@@H](Cc1c[nH]c2ccccc12)C(=O)NCCO)C(C)C)C(C)C)C(C)C [compound 8459] (For-VGA[dV]A[dL]V[dD](NHMe)W[dV]W[dV]W[dV]W-NHCH2CH2OH) | 1.03 | 47.5 | -
CC(C)C[C@@H](NC(=O)[C@H](C)NC(=O)CNC(=O)[C@@H](NC=O)C(C)C)C(=O)N[C@@H](C)C(=O)N[C@@H](C(=O)N[C@H](C(=O)N[C@H](CC(C)C)C(=O)N[C@@H](Cc1c[nH]c2ccccc12)C(=O)N[C@@H](C(=O)N[C@@H](Cc1c[nH]c2ccccc12)C(=O)N[C@H](CC(C)C)C(=O)N[C@@H](Cc1c[nH]c2ccccc12)C(=O)N[C@H](CC(C)C)C(=O)N[C@@H](Cc1c[nH]c2ccccc12)C(=O)NCCO)C(C)C)C(C)C)C(C)C [compound 8464] (For-VGA[dL]A[dV]V[dL]W[dV]W[dL]W[dL]W-NHCH2CH2OH) | 1.23 | 4.1 | -
CC(C)C[C@@H](NC(=O)[C@H](C)NC(=O)CNC(=O)[C@@H](NC=O)C(C)C)C(=O)N[C@@H](C)C(=O)N[C@H](CC(C)C)C(=O)N[C@H](C(=O)N[C@@H](C(=O)N[C@@H](Cc1c[nH]c2ccccc12)C(=O)N[C@@H](C(=O)N[C@@H](Cc1c[nH]c2ccccc12)C(=O)N[C@@H](C(=O)N[C@@H](Cc1c[nH]c2ccccc12)C(=O)N[C@H](CC(C)C)C(=O)N[C@@H](Cc1c[nH]c2ccccc12)C(=O)NCCO)[C@H](C)O)C(C)C)C(C)C)C(C)C [compound 8498] (For-VGA[dL]A[dL]V[dV]W[dV]W[dT]W[dL]W-NHCH2CH2OH) | 1.01 | 52.6 | -
CNC(=O)C[C@@H](NC(=O)[C@H](C)NC(=O)[C@@H](CC(C)C)NC(=O)[C@H](C)NC(=O)CNC(=O)[C@@H](NC=O)C(C)C)C(=O)N[C@H](C(=O)N[C@@H](C(=O)N[C@@H](Cc1c[nH]c2ccccc12)C(=O)N[C@H](CC(C)C)C(=O)N[C@@H](Cc1c[nH]c2ccccc12)C(=O)N[C@@H](C(=O)N[C@@H](Cc1c[nH]c2ccccc12)C(=O)N[C@H](CC(C)C)C(=O)N[C@@H](Cc1c[nH]c2ccccc12)C(=O)NCCO)C(C)C)C(C)C)C(C)C [compound 8535] (For-VGA[dL]A[dD](NHMe)V[dV]W[dL]W[dV]W[dL]W-NHCH2CH2OH) | 1.28 | 71.4 | -
CC(C)[C@H](NC=O)C(=O)NCC(=O)N[C@@H](C)C(=O)N[C@@H](C(=O)N[C@@H](C)C(=O)N[C@@H](C(=O)N[C@H](C(=O)N[C@@H](C(=O)N[C@@H](Cc1c[nH]c2ccccc12)C(=O)N[C@@H](C(=O)N[C@@H](Cc1c[nH]c2ccccc12)C(=O)N[C@@H](C(=O)N[C@@H](Cc1c[nH]c2ccccc12)C(=O)N[C@@H](C(=O)N[C@@H](Cc1c[nH]c2ccccc12)C(=O)NCCO)C(C)C)C(C)C)C(C)C)C(C)C)C(C)C)C(C)C)[C@H](C)O [compound 8545] (For-VGA[dT]A[dV]V[dV]W[dV]W[dV]W[dV]W-NHCH2CH2OH) | 1.01 | 83.1 | -
CNC(=O)C[C@@H](NC(=O)[C@H](Cc1c[nH]c2ccccc12)NC(=O)[C@H](NC(=O)[C@H](Cc1c[nH]c2ccccc12)NC(=O)[C@H](NC(=O)[C@H](Cc1c[nH]c2ccccc12)NC(=O)[C@@H](CC(C)C)NC(=O)[C@@H](NC(=O)[C@H](NC(=O)[C@H](C)NC(=O)[C@@H](CC(C)C)NC(=O)[C@H](C)NC(=O)CNC(=O)[C@@H](NC=O)C(C)C)C(C)C)C(C)C)C(C)C)C(C)C)C(=O)N[C@@H](Cc1c[nH]c2ccccc12)C(=O)NCCO [compound 8567] (For-VGA[dL]A[dV]V[dL]W[dV]W[dV]W[dD](NHMe)W-NHCH2CH2OH) | 1.22 | 60.9 | -
CC(C)C[C@@H](NC(=O)[C@H](Cc1c[nH]c2ccccc12)NC(=O)[C@H](NC(=O)[C@@H](NC(=O)[C@H](NC(=O)[C@H](C)NC(=O)[C@H](NC(=O)[C@H](C)NC(=O)CNC(=O)[C@@H](NC=O)C(C)C)C(C)C)C(C)C)C(C)C)[C@H](C)O)C(=O)N[C@@H](Cc1c[nH]c2ccccc12)C(=O)N[C@@H](C(=O)N[C@@H](Cc1c[nH]c2ccccc12)C(=O)N[C@@H](C(=O)N[C@@H](Cc1c[nH]c2ccccc12)C(=O)NCCO)C(C)C)C(C)C [compound 8596] (For-VGA[dV]A[dV]V[dT]W[dL]W[dV]W[dV]W-NHCH2CH2OH) | 1.07 | 56.2 | -
CNC(=O)C[C@@H](NC(=O)[C@@H](NC(=O)[C@@H](CC(C)C)NC(=O)[C@H](C)NC(=O)[C@@H](CC(C)C)NC(=O)[C@H](C)NC(=O)CNC(=O)[C@@H](NC=O)C(C)C)C(C)C)C(=O)N[C@@H](Cc1c[nH]c2ccccc12)C(=O)N[C@H](CC(C)C)C(=O)N[C@@H](Cc1c[nH]c2ccccc12)C(=O)N[C@@H](C(=O)N[C@@H](Cc1c[nH]c2ccccc12)C(=O)N[C@H](CC(C)C)C(=O)N[C@@H](Cc1c[nH]c2ccccc12)C(=O)NCCO)C(C)C [compound 8600] (For-VGA[dL]A[dL]V[dD](NHMe)W[dL]W[dV]W[dL]W-NHCH2CH2OH) | 1.20 | 55.3 | -
